Reference: patent US20120029187A1, “HALOALKYLSULFONANILIDE DERIVATIVE” (Nissan Chemical Industries, Ltd., priority 2009, published 2012)

Columns and labels:
Format in all cases: in vivo
transplanted rice = test: Test Example 1: preemergence treatment under submerged conditions, effect on crop; details: dose 2.52 g/a
How it was run: (§1)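 Scoring 0 (<5% mortality) to 5 (≥90%) was done three weeks after preemergence application to the water surface of submerged (4 cm) alluvial soil, doses given as g per are. Weeds were seeded and 2.5-leaf rice transplanted on the treatment day; greenhouse at 25–30 °C.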

giant foxtail [1] = test: Test Example 3: herbicidal effects in soil treatment; details: dose 3.2 g/a
How it was run: (§2)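 Seeds were sown in sterilized diluvial soil and covered with about 1.5 cm of soil. Compounds, formulated as emulsifiable concentrates and diluted with water, were sprayed evenly over the soil surface at set doses in g/a. Herbicidal effect was scored on a rating scale three weeks later.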

common chickweed [2] = test: as above; details: dose 3.2 g/a
How it was run: as §2

Italian ryegrass [3] = test: as above; details: dose 3.2 g/a
How it was run: as §2

barnyardgrass [4] = test: as above; details: dose 3.2 g/a
How it was run: as §2

large crabgrass [5] = test: as above; details: dose 3.2 g/a
How it was run: as §2

common ragweed [6] = test: as above; details: dose 3.2 g/a
How it was run: as §2

redroot pigweed [7] = test: as above; details: dose 3.2 g/a
How it was run: as §2

velvetleaf [8] = test: as above; details: dose 3.2 g/a
How it was run: as §2

beadstraw [9] = test: as above; details: dose 3.2 g/a
How it was run: as §2

water foxtail [10] = test: as above; details: dose 3.2 g/a
How it was run: as §2

common lambsquater [11] = test: as above; details: dose 3.2 g/a
How it was run: as §2

barnyardgrass [12] = test: Test Example 1: herbicidal effects in preemergence treatment under submerged conditions; details: dose 2.52 g/a
How it was run: as §1

ducksalad [13] = test: as above; details: dose 2.52 g/a
How it was run: as §1

bulrush [14] = test: as above; details: dose 2.52 g/a
How it was run: as §1

barnyardgrass [15] = test: Test Example 2: herbicidal effects during the vegetation period under submerged conditions; details: treatment during the vegetation period under submerged conditions; dose 2.52 g/a
How it was run: (§3)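 Barnyardgrass, bulrush and ducksalad were co-sown in alluvial soil flooded to 4 cm and grown in a greenhouse at 25 to 30° C. At the 1- or 2-leaf stage, water-diluted emulsifiable concentrates went onto the water surface at set doses (g/a). Herbicidal effect was scored three weeks later on a graded scale.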

ducksalad [16] = test: as above; details: treatment during the vegetation period under submerged conditions; dose 2.52 g/a
How it was run: as §3

bulrush [17] = test: as above; details: treatment during the vegetation period under submerged conditions; dose 2.52 g/a
How it was run: as §3

giant foxtail [18] = test: Test Example 4: herbicidal effect in foliage treatment; details: dose 3.2 g/a
How it was run: (§4)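 Foliar spray, post-emergence: 14-day-old greenhouse plants (25–30° C, diluvial soil) treated with water-diluted EC at set g/a doses; visual herbicidal score at 3 wk post-application.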

common chickweed [19] = test: as above; details: dose 3.2 g/a
How it was run: as §4

Italian ryegrass [20] = test: as above; details: dose 3.2 g/a
How it was run: as §4

barnyardgrass [21] = test: as above; details: dose 3.2 g/a
How it was run: as §4

large crabgrass [22] = test: as above; details: dose 3.2 g/a
How it was run: as §4

common ragweed [23] = test: as above; details: dose 3.2 g/a
How it was run: as §4

posumbu knotweed = test: as above; details: dose 3.2 g/a
How it was run: as §4

redroot pigweed [24] = test: as above; details: dose 3.2 g/a
How it was run: as §4

velvetleaf [25] = test: as above; details: dose 3.2 g/a
How it was run: as §4

beadstraw [26] = test: as above; details: dose 3.2 g/a, three weeks after application
How it was run: as §4

water foxtail [27] = test: as above; details: dose 3.2 g/a
How it was run: as §4

common lambsquater [28] = test: as above; details: dose 3.2 g/a
How it was run: as §4

[29] = three weeks after the application

O=C1CC2(CCC2)OCN1Cc1ccccc1NS(=O)(=O)C(F)(F)F [II-61]
a: transplanted rice, effect on crop (evaluation scale 0-5) (transplanted rice): 2 (mortality of at least 20% and less than 40%)
E: giant foxtail, herbicidal effect (evaluation scale 0-5) (giant foxtail [1]): 5 (mortality of 90% or above (nearly complete death))
N: common chickweed, herbicidal effect (evaluation scale 0-5) (common chickweed [2]): 5 (mortality of 90% or above (nearly complete death))
H: Italian ryegrass, herbicidal effect (evaluation scale 0-5) (Italian ryegrass [3]): 5 (mortality of 90% or above (nearly complete death))
A: barnyardgrass, herbicidal effect (evaluation scale 0-5) (barnyardgrass [4]): 5 (mortality of 90% or above (nearly complete death))
D: large crabgrass, herbicidal effect (evaluation scale 0-5) (large crabgrass [5]): 5 (mortality of 90% or above (nearly complete death))
J: common ragweed, herbicidal effect (evaluation scale 0-5) (common ragweed [6]): 4 (mortality of at least 70% and less than 90%)
K: redroot pigweed, herbicidal effect (evaluation scale 0-5) (redroot pigweed [7]): 5 (mortality of 90% or above (nearly complete death))
I: velvetleaf, herbicidal effect (evaluation scale 0-5) (velvetleaf [8]): 5 (mortality of 90% or above (nearly complete death))
O: beadstraw, herbicidal effect (evaluation scale 0-5) (beadstraw [9]): 5 (mortality of 90% or above (nearly complete death))
G: water foxtail, herbicidal effect (evaluation scale 0-5) (water foxtail [10]): 5 (mortality of 90% or above (nearly complete death))
L: common lambsquater, herbicidal effect (evaluation scale 0-5) (common lambsquater [11]): 5 (mortality of 90% or above (nearly complete death))
A: barnyardgrass, herbicidal effect (evaluation scale 0-5) (barnyardgrass [12]): 5 (mortality of 90% or above (nearly complete death))
C: ducksalad, herbicidal effect (evaluation scale 0-5) (ducksalad [13]): 5 (mortality of 90% or above (nearly complete death))
B: bulrush, herbicidal effect (evaluation scale 0-5) (bulrush [14]): 5 (mortality of 90% or above (nearly complete death))
A: barnyardgrass, herbicidal effect (evaluation scale 0-5) (barnyardgrass [15]): 5 (mortality of 90% or above (nearly complete death))
C: ducksalad, herbicidal effect (evaluation scale 0-5) (ducksalad [16]): 5 (mortality of 90% or above (nearly complete death))
B: bulrush, herbicidal effect (evaluation scale 0-5) (bulrush [17]): 5 (mortality of 90% or above (nearly complete death))
E: giant foxtail, herbicidal effect (giant foxtail [18]; three weeks after application): 5 (mortality of 90% or above (nearly complete death))
N: common chickweed, herbicidal effect (common chickweed [19]; three weeks after application): 4 (mortality of at least 70% and less than 90%)
H: Italian ryegrass, herbicidal effect (Italian ryegrass [20]; three weeks after application): 4 (mortality of at least 70% and less than 90%)
A: barnyardgrass, herbicidal effect (barnyardgrass [21]; three weeks after application): 5 (mortality of 90% or above (nearly complete death))
D: large crabgrass, herbicidal effect (large crabgrass [22]; three weeks after application): 4 (mortality of at least 70% and less than 90%)
J: common ragweed, herbicidal effect (common ragweed [23]; three weeks after application): 3 (mortality of at least 40% and less than 70%)
M: posumbu knotweed, herbicidal effect (posumbu knotweed; three weeks after application): 4 (mortality of at least 70% and less than 90%)
K: redroot pigweed, herbicidal effect (redroot pigweed [24]; three weeks after application): 0 (mortality of less than 5% (almost ineffective))
I: velvetleaf, herbicidal effect (velvetleaf [25]; three weeks after application): 5 (mortality of 90% or above (nearly complete death))
O: beadstraw, herbicidal effect (beadstraw [26]): 3 (mortality of at least 40% and less than 70%)
G: water foxtail, herbicidal effect (water foxtail [27]; three weeks after application): 5 (mortality of 90% or above (nearly complete death))
L: common lambsquater, herbicidal effect (common lambsquater [28]; three weeks after application): 3 (mortality of at least 40% and less than 70%)

CCOC(=O)N(c1ccccc1CN1COC2(CCCC2)C(Br)C1=O)S(=O)(=O)C(F)(F)F (centres unmarked) [II-77]
a: transplanted rice, effect on crop (evaluation scale 0-5) (transplanted rice): 0 (mortality of less than 5% (almost ineffective))
herbicidal effect, E: giant foxtail (giant foxtail [1]): 1 (mortality of at least 5% and less than 20%)
herbicidal effect, N: common chickweed (common chickweed [2]): 4 (mortality of at least 70% and less than 90%)
herbicidal effect, H: Italian ryegrass (Italian ryegrass [3]): 1 (mortality of at least 5% and less than 20%)
herbicidal effect, A: barnyardgrass (barnyardgrass [4]): 4 (mortality of at least 70% and less than 90%)
herbicidal effect, D: large crabgrass (large crabgrass [5]): 5 (mortality of 90% or above (nearly complete death))
herbicidal effect, J: common ragweed (common ragweed [6]): 0 (mortality of less than 5% (almost ineffective))
herbicidal effect, K: redroot pigweed (redroot pigweed [7]): 4 (mortality of at least 70% and less than 90%)
herbicidal effect, I: velvetleaf (velvetleaf [8]): 5 (mortality of 90% or above (nearly complete death))
herbicidal effect, O: beadstraw (beadstraw [9]): 0 (mortality of less than 5% (almost ineffective))
herbicidal effect, G: water foxtail (water foxtail [10]): 3 (mortality of at least 40% and less than 70%)
herbicidal effect, L: common lambsquater (common lambsquater [11]): 5 (mortality of 90% or above (nearly complete death))
A: barnyardgrass, herbicidal effect (evaluation scale 0-5) (barnyardgrass [12]): 5 (mortality of 90% or above (nearly complete death))
C: ducksalad, herbicidal effect (evaluation scale 0-5) (ducksalad [13]): 5 (mortality of 90% or above (nearly complete death))
B: bulrush, herbicidal effect (evaluation scale 0-5) (bulrush [14]): 5 (mortality of 90% or above (nearly complete death))
A: barnyardgrass, herbicidal effect (evaluation scale 0-5) (barnyardgrass [15]): 0 (mortality of less than 5% (almost ineffective))
C: ducksalad, herbicidal effect (evaluation scale 0-5) (ducksalad [16]): 4 (mortality of at least 70% and less than 90%)
B: bulrush, herbicidal effect (evaluation scale 0-5) (bulrush [17]): 5 (mortality of 90% or above (nearly complete death))
E: giant foxtail, herbicidal effect (giant foxtail [18]; [29]): 1 (mortality of at least 5% and less than 20%)
N: common chickweed, herbicidal effect (common chickweed [19]; [29]): 3 (mortality of at least 40% and less than 70%)
H: Italian ryegrass, herbicidal effect (Italian ryegrass [20]; [29]): 0 (mortality of less than 5% (almost ineffective))
A: barnyardgrass, herbicidal effect (barnyardgrass [21]; [29]): 4 (mortality of at least 70% and less than 90%)
D: large crabgrass, herbicidal effect (large crabgrass [22]; [29]): 1 (mortality of at least 5% and less than 20%)
J: common ragweed, herbicidal effect (common ragweed [23]; [29]): 3 (mortality of at least 40% and less than 70%)
M: posumbu knotweed, herbicidal effect (posumbu knotweed; [29]): 3 (mortality of at least 40% and less than 70%)
K: redroot pigweed, herbicidal effect (redroot pigweed [24]; [29]): 3 (mortality of at least 40% and less than 70%)
I: velvetleaf, herbicidal effect (velvetleaf [25]; [29]): 3 (mortality of at least 40% and less than 70%)
G: water foxtail, herbicidal effect (water foxtail [27]; [29]): 5 (mortality of 90% or above (nearly complete death))
L: common lambsquater, herbicidal effect (common lambsquater [28]; [29]): 4 (mortality of at least 70% and less than 90%)
